Experimental data from US11053219B2, “Substituted pyridines as TYK2 inhibitors” (FronThera U.S. Pharmaceuticals LLC, priority 2018, dated 2021).
Like-named read-outs stand apart in the source and are kept apart here.

Tests used:
TYK2 (JH2 domain) = TYK2 (JH2 domain) (Homo sapiens (Human), UniProt P29597); assay: TYK2 JH2 domain binding assay (DiscoverX KINOMEscan); settings: 11-point 3-fold dilution, duplicate
[1] = tested on: INFα induced pSTAT3 in human PBMC; assay: INFα induced pSTAT3 in human PBMC; assay type: cell-based; settings: read-out: p-STAT3 IC50
Protocol: Fresh Human PBMCs were resuspended in RPMI 1640 medium with 10% FBS. Cells were seeded in a round bottom 96-well plate at the concentration of 200,000 cells/well. A 10-point dilution series of test compound (top dose 10 uM, 1:5 dilution) was added to the well using the liquid dispenser (Tecan D300e) and incubated for 1 hour at 37 C. Then human INFα recombinant protein (R&D Systems) was added to the well at the final concentration of 5000 units/ml and incubated for 15 minutes at 37 C. Cell lysates were prepared and analyzed by Phospho STAT3 (Tyr705) cellular kit (Cisbio) or Phospho STAT5 (Tyr693) Kit (Meso Scale Discovery) following manufacturer's protocol.
For calculation of the inhibition rate, the relative pSTAT signal of each well=pSTAT signal of each well−the average pSTAT signal of baseline. The inhibition %=(the average pSTAT signal of INFα treatment wells−the relative of pSTAT signal in each compound containing well)/the average pSTAT signal of INFα treatment wells*100%
The curve was plotted as the inhibition % (y-axis) vs. compounds concentration (x-axis) and was fitted with log(inhibitor) vs. normalized response—Variable slope by GraphPad Prism7.0.

[2] = tested on: IL12-induced p-STAT4 in human PBMC; assay: IL-12 induced pSTAT4 in human PBMC; assay type: cell-based; settings: read-out: p-STAT4 IC50
Protocol: Cells were seeded in a round bottom 96-well plate at the concentration of 200,000 cells/well. A 10-point dilution series of test compound (top dose 10 uM, 1:5 dilution) was added to the well using the liquid dispenser (Tecan D300e) and incubated for 1 hour at 37 C. Then human IL-12 recombinant protein (R&D Systems) was added to the well at the final concentration of 10 ng/ml and incubated for 15 minutes at 37 C. Cell lysates were prepared and analyzed by Phospho STAT4 (Tyr693) Kit (Meso Scale Discovery) following manufacturer's protocol.
For calculation of the inhibition rate, the relative pSTAT4 signal of each well=pSTAT4 signal of each well−the average pSTAT4 signal of baseline. The inhibition %=(the average pSTAT4 signal of IL-12 treatment wells−the relative of pSTAT4 signal in each compound containing well)/the average pSTAT4 signal of IL-12 treatment wells*100%

Chain of TYK2 (JH2 domain) (P29597 589-875): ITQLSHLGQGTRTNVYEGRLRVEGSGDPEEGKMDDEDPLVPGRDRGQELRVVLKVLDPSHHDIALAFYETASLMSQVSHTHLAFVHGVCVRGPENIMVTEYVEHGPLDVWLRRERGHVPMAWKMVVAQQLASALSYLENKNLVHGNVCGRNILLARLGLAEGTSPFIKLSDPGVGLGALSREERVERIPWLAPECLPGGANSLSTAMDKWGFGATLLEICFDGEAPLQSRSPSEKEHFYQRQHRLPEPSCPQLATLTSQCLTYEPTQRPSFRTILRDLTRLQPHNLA

| Compound | Kd (TYK2 (JH2 domain)) [nM] | IC50 ([1]; human PBMC, INFα 5000 units/ml) [nM] | IC50 ([2]; human PBMC, IL-12 10 ng/ml) [nM] | IC50 ([1]; Homo sapiens, PBMC) [nM] | IC50 ([2]; Homo sapiens, PBMC) [nM] |
| --- | --- | --- | --- | --- | --- |
| [2H]C([2H])([2H])NC(=O)c1nnc(N2CCNC2=O)cc1Nc1cccc(-c2ncn(C)n2)c1OC [Example 1, 4-[2-methoxy-3-(1-methyl-1,2,4-triazol-3-yl)anilino]-6-(2-oxoimidazolidin-1-yl)-N-(trideuteriomethyl)pyridazine-3-carboxamide] | ≤ 1 | 100 to 1000 | < 100 |  |  |
| [2H]C([2H])([2H])NC(=O)c1nnc(N2CCN(C)C2=O)cc1Nc1cccc(-c2ncn(C)n2)c1OC [Example 2, 4-[2-methoxy-3-(1-methyl-1,2,4-triazol-3-yl)anilino]-6-(3-methyl-2-oxo-imidazolidin-1-yl)-N-(trideuteriomethyl)pyridazine-3-carboxamide] | ≤ 1 | 100 to 1000 | < 100 |  |  |
| [2H]C([2H])([2H])NC(=O)c1nnc(N2CCC2=O)cc1Nc1cccc(-c2ncn(C)n2)c1OC [Example 3, 4-[2-methoxy-3-(1-methyl-1,2,4-triazol-3-yl)anilino]-N-methyl-6-(2-oxoazetidin-1-yl) pyridazine-3-carboxamide] | 5 to 10 | 1000 to 10000 | 100 to 1000 |  |  |
| [2H]C([2H])([2H])NC(=O)c1nnc(N2CCC3(CC3)C2=O)cc1Nc1cccc(-c2ncn(C)n2)c1OC [Example 4, 4-[2-methoxy-3-(1-methyl-1,2,4-triazol-3-yl)anilino]-6-(4-oxo-5-azaspiro[2.4]heptan-5-yl)-N-(trideuteriomethyl)pyridazine-3-carboxamide] | ≤ 1 | 100 to 1000 | < 100 |  |  |
| [2H]C([2H])([2H])NC(=O)c1nnc(N2CCN(C3CC3)C2=O)cc1Nc1cccc(-c2ncn(C)n2)c1OC [Example 5, 6-(3-cyclopropyl-2-oxo-imidazolidin-1-yl)-4-[2-methoxy-3-(1-methyl-1,2,4-triazol-3-yl)anilino]-N-(trideuteriomethyl)pyridazine-3-carboxamide] | ≤ 1 | 100 to 1000 | < 100 |  |  |
| [2H]C([2H])([2H])NC(=O)c1nnc(N2CCC(C)(C)C2=O)cc1Nc1cccc(-c2ncn(C)n2)c1OC [Example 7, 6-(3,3-dimethyl-2-oxo-pyrrolidin-1-yl)-4-[2-methoxy-3-(1-methyl-1,2,4-triazol-3-yl)anilino]-N-(trideuteriomethyl)pyridazine-3-carboxamide] |  | 100 to 1000 | 100 to 1000 |  |  |
| [2H]C([2H])([2H])NC(=O)c1nnc(N2CCN(CC(F)F)C2=O)cc1Nc1cccc(-c2ncn(C)n2)c1OC [Example 8, 6-[3-(2,2-difluoroethyl)-2-oxo-imidazolidin-1-yl]-4-[2-methoxy-3-(1-methyl-1,2,4-triazol-3-yl)anilino]-N-(trideuteriomethyl)pyridazine-3-carboxamide; 2,2,2-trifluoroacetic acid] | ≤ 1 |  |  | < 100 | < 100 |
| [2H]C([2H])([2H])NC(=O)c1nnc(N2CCN(CCOC)C2=O)cc1Nc1cccc(-c2ncn(C)n2)c1OC [Example 9, 6-[3-(2-methoxyethyl)-2-oxo-imidazolidin-1-yl]-4-[2-methoxy-3-(1-methyl-1,2,4-triazol-3-yl)anilino]-N-(trideuteriomethyl)pyridazine-3-carboxamide] | ≤ 1 | 100 to 1000 | < 100 |  |  |
| [2H]C([2H])([2H])NC(=O)c1nnc(N2CCN(CC)C2=O)cc1Nc1cccc(-c2ncn(C)n2)c1OC [Example 12, 6-(3-ethyl-2-oxo-imidazolidin-1-yl)-4-[2-methoxy-3-(1-methyl-1,2,4-triazol-3-yl)anilino]-N-(trideuteriomethyl)pyridazine-3-carboxamide] | ≤ 1 |  |  | < 100 | < 100 |
| [2H]C([2H])([2H])NC(=O)c1nnc(N2CCN(C(C([2H])([2H])[2H])C([2H])([2H])[2H])C2=O)cc1Nc1cccc(-c2ncn(C)n2)c1OC [Example 13, 6-(3-isopropyl-2-oxo-imidazolidin-1-yl)-4-[2-methoxy-3-(1-methyl-1,2,4-triazol-3-yl)anilino]-N-(trideuteriomethyl)pyridazine-3-carboxamide] |  |  |  | < 100 | < 100 |
| [2H]C([2H])([2H])NC(=O)c1c(Nc2cccc(-c3ncn(C)n3)c2OC)cc(NC(=O)C2CC2)nc1F [Example 23] | ≤ 1 | 100 to 1000 | 100 to 1000 |  |  |
| COc1c(Nc2cc(NC(=O)C3CC3)nnc2C(C)=O)cccc1-c1ncn(C)n1 [Example 24] | 1 to 5 | 100 to 1000 | 100 to 1000 |  |  |
| CCC(=O)c1nnc(NC(=O)C2CC2)cc1Nc1cccc(-c2ncn(C)n2)c1OC [Example 25] | ≤ 1 | 100 to 1000 | 100 to 1000 |  |  |
| COc1c(Nc2cc(NC(=O)C3CC3)nnc2C(=O)C2CC2)cccc1-c1ncn(C)n1 [Example 26] | ≤ 1 | 100 to 1000 | < 100 |  |  |
| COc1c(Nc2cc(NC(=O)C3CC3)nc3ncn(C)c(=O)c23)cccc1-c1ncn(C)n1 [Example 39] | 5 to 10 | 100 to 1000 | 100 to 1000 |  |  |
| [2H]C([2H])([2H])NC(=O)c1nnc(N/C(=N/O)C2CC2)cc1Nc1cccc(-c2ncn(C)n2)c1OC [Example 40] | ≤ 1 | 100 to 1000 | 100 to 1000 |  |  |
| COc1c(Nc2cc(NC(=O)C3CC3)nc3c2C2=NC(=O)CN2C3)cccc1-c1ncn(C)n1 [Example 41] | 1 to 5 | 1000 to 10000 | 1000 to 10000 |  |  |
| [2H]C([2H])([2H])NC(=O)c1c(Nc2cccc(-c3nnn(C)n3)c2OC)cc(NC(=O)C2CC2)nc1F [Example 42] | 1 to 5 | 1000 to 10000 | 100 to 1000 |  |  |
